In patent US9682977B2, “Bicyclic heteroaryl indole analogues useful as ROR gamma modulators” (Glenmark Pharmaceuticals S.A., priority 2013, dated 2017):
Read-outs that look alike come from different tables or passages of the source.

Target: T1, GST-tagged ROR gamma ligand binding domain (LBD) (Homo sapiens, UniProt P51449)
T1 construct: purchased Invitrogen
T1 sequence (P51449 269-508 limits assumed): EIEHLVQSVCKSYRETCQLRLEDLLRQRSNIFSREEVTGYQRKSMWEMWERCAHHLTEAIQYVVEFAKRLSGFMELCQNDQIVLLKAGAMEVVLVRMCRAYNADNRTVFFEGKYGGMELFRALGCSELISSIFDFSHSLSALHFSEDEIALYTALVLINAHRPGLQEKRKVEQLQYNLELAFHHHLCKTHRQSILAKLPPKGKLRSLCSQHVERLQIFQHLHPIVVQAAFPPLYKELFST
Assay: TR-FRET assay for ROR gamma (Lantha Screen, co-activator peptide recruitment)
Assay type: biochemical
Conditions: for IC50: class symbols, from dose response curve, read-out: IC50 value; for inhibition at 1 µM: read-out: % inhibition at 1 μM; for inhibition at 10 µM: read-out: % inhibition at 10 μM

[1] = compound concentration 1 μM, TR-FRET ratio 520/495, percent of control
[2] = compound concentration 10 μM, TR-FRET ratio 520/495, percent of control

| SMILES | IC50 [nM] | inhibition at 1 µM [1] [%] | inhibition at 10 µM [2] [%] | inhibition at 1 µM [%] | inhibition at 10 µM [%] |
| --- | --- | --- | --- | --- | --- |
| O=C(O)c1ccc(-n2nc(C(=O)c3c(Cl)cccc3Cl)c3cccnc32)cc1 [Example 36, 4-{3-[(2,6-Dichlorophenyl)carbonyl]-1H-pyrazolo[3,4-b]pyridin-1-yl}benzoic acid] | < 50 | 95.7 | 96.4 |  |  |
| O=C(O)c1ccc(-n2nc(C(=O)c3c(Cl)cccc3C3CC3)c3cccnc32)cc1 [Example 37, 4-{3-[(2-Chloro-6-cyclopropylphenyl)carbonyl]-1H-pyrazolo[3,4-b]pyridin-1-yl}benzoic acid] | < 50 | 97.6 | 94.6 |  |  |
| O=C(O)c1ccc(-n2nc(C(=O)c3c(Cl)cccc3C(F)(F)F)c3cccnc32)cc1 [Example 38, 4-(3-{[2-Chloro-6-(trifluoromethyl)phenyl]carbonyl}-1H-pyrazolo[3,4-b]pyridin-1-yl)benzoic acid] | < 50 | 96.8 | 93.5 |  |  |
| CCOC(=O)c1ccc(-n2cc(C(=O)c3c(Cl)cccc3Cl)c3ccccc32)c(F)c1 [Example 39, Ethyl 4-{3-[(2,6-dichlorophenyl)carbonyl]-1H-indol-1-yl}-3-fluorobenzoate] |  |  |  | 15.4 | 25 |
| CCCOC(=O)c1ccc(-n2cc(C(=O)c3c(Cl)cccc3Cl)c3ccccc32)c(F)c1 [Example 40, Propyl 4-{3-[(2,6-dichlorophenyl)carbonyl]-1H-indol-1-yl}-3-fluorobenzoate] |  |  |  | 9.11 |  |
| CCCCOC(=O)c1ccc(-n2cc(C(=O)c3c(Cl)cccc3Cl)c3ccccc32)c(F)c1 [Example 41, Butyl 4-{3-[(2,6-dichlorophenyl)carbonyl]-1H-indol-1-yl}-3-fluorobenzoate] |  |  |  | 5.13 |  |
| CCOC(=O)c1ccc(-n2cc(C(=O)c3c(Cl)cccc3Cl)c3cccc(F)c32)c(F)c1 [Example 42, Ethyl 4-[3-(2,6-dichloro-benzoyl)-7-fluoro-1H-indol-1-yl]-3-fluorobenzoate] |  |  |  | 0.61 |  |
| CCCOC(=O)c1ccc(-n2cc(C(=O)c3c(Cl)cccc3Cl)c3cccc(F)c32)c(F)c1 [Example 43, Propyl 4-[3-(2,6-dichloro-benzoyl)-7-fluoro-1H-indol-1-yl]-3-fluorobenzoate] |  |  |  | 6.99 | 1.02 |
| CCCCOC(=O)c1ccc(-n2cc(C(=O)c3c(Cl)cccc3Cl)c3cccc(F)c32)c(F)c1 [Example 44, Butyl 4-[3-(2,6-dichloro-benzoyl)-7-fluoro-1H-indol-1-yl]-3-fluorobenzoate] |  |  |  | 3.55 | 2.25 |
| CCOC(=O)c1ccc(-n2nc(Oc3c(Cl)cccc3C(F)(F)F)c3ccccc32)c(F)c1 [Example 45, Ethyl 4-{3-[2-chloro-6-(trifluoromethyl)phenoxy]-1H-indazol-1-yl}-3-fluorobenzoate] | 50 to 100 | 97.9 | 93.7 |  |  |
| CCCOC(=O)c1ccc(-n2nc(Oc3c(Cl)cccc3C(F)(F)F)c3ccccc32)c(F)c1 [Example 46, Propyl 4-{3-[2-chloro-6-(trifluoromethyl)phenoxy]-1H-indazol-1-yl}-3-fluorobenzoate] |  | 10.9 | 28.5 |  |  |
| CCCCOC(=O)c1ccc(-n2nc(Oc3c(Cl)cccc3C(F)(F)F)c3ccccc32)c(F)c1 [Example 47, Butyl 4-{3-[2-chloro-6-(trifluoromethyl)phenoxy]-1H-indazol-1-yl}-3-fluorobenzoate] |  | 52 | 91.9 |  |  |
| CC(C)OC(=O)c1ccc(-n2nc(Oc3c(Cl)cccc3C(F)(F)F)c3ccccc32)c(F)c1 [Example 48, Isopropyl 4-{3-[2-chloro-6-(trifluoromethyl)phenoxy]-1H-indazol-1-yl}-3-fluorobenzoate] |  | 26.3 | 84.6 |  |  |
